# Data as given in ChEMBL document CHEMBL3271944, “Biologically active polycycloalkanes. 2. Antiviral 4-homoisotwistane derivatives” (J Med Chem, 1976).
# Where a name gives a salt, the structure may show the parent alone.
# Tests used:
# Newcastle disease virus [1] = test: Antiviral activity against Newcastle disease virus Miyadera infected in CEF assessed as suppression of <= 1% hemagglutinating activity by tube assay; assay type: functional; conditions: avian paramyxovirus 1, Miyadera
# [2] = Cytotoxicity against CEF after 24 hrs by microscopic analysis; parameters: species or system Gallus gallus; conditions: chicken; for MCC at 24 h: CEF cells; for MCC: 24 h
# [3] = Ratio of MCC for CEF to MIC for Newcastle disease virus Miyadera infected in CEF
# Newcastle disease virus [4] = test: Ratio of amantadine hydrochloride MIC to compound MIC for Newcastle disease virus Miyadera infected in CEF; assay type: functional, avian paramyxovirus 1
compound,measurement,setting,value
C1CC2CC3CCC2C(C1)C3,MIC,Newcastle disease virus [1],670 µM
same,MCC at 24 h,[2],670 µM
CC(=O)NC12CCCC3CC(CCC31)C2 (stereo not given),MIC,Newcastle disease virus [1],750 µM
same,MCC at 24 h,[2],3000 µM
Cl.NC12CCCC3CC(CCC31)C2 (stereo not given),Ratio,[3],2
same,MIC,Newcastle disease virus [1],25 µM
same,Ratio,Newcastle disease virus [4],30
same,MCC at 24 h,[2],200 µM
OC12CCCC3CC(CCC31)C2 (stereo not given),MIC,Newcastle disease virus [1],3000 µM
same,MCC at 24 h,[2],6000 µM
O=C1C2CCC3C(CCCC13)C2 (stereo not given),MIC,Newcastle disease virus [1],1200 µM
same,MCC at 24 h,[2],2400 µM
O=C(O)C12CCCC3CC(CCC31)C2 (stereo not given),MIC,Newcastle disease virus [1],10000 µM
same,MCC at 24 h,[2],10000 µM
COC(=O)C12CCCC3CC(CCC31)C2 (stereo not given),MIC,Newcastle disease virus [1],80 µM
same,MCC at 24 h,[2],80 µM
OCC12CCCC3CC(CCC31)C2 (stereo not given),MIC,Newcastle disease virus [1],440 µM
same,MCC at 24 h,[2],870 µM
NC(=O)C12CCCC3CC(CCC31)C2 (stereo not given),MIC,Newcastle disease virus [1],2600 µM
same,MCC at 24 h,[2],5200 µM
CCCCCCCCOC(=O)C12CCCC3CC(CCC31)C2 (stereo not given),MIC,Newcastle disease virus [1],330 µM
same,MCC at 24 h,[2],490 µM
CNC(=O)C12CCCC3CC(CCC31)C2 (stereo not given),MIC,Newcastle disease virus [1],3000 µM
same,MCC at 24 h,[2],750 µM
CCCCNC(=O)C12CCCC3CC(CCC31)C2 (stereo not given),MIC,Newcastle disease virus [1],625 µM
same,MCC at 24 h,[2],300 µM
O=C(NC1CCCCC1)C12CCCC3CC(CCC31)C2 (stereo not given),MIC,Newcastle disease virus [1],2250 µM
same,MCC at 24 h,[2],2250 µM
O=C(NC12CC3CC(CC(C3)C1)C2)C12CCCC3CC(CCC31)C2 (stereo not given),MIC,Newcastle disease virus [1],7500 µM
same,MCC at 24 h,[2],2000 µM
N#CC12CCCC3CC(CCC31)C2 (stereo not given),MIC,Newcastle disease virus [1],570 µM
same,MCC at 24 h,[2],850 µM
Cl.NCC12CCCC3CC(CCC31)C2 (stereo not given),Ratio,[3],2
same,MIC,Newcastle disease virus [1],45 µM
same,Ratio,Newcastle disease virus [4],30
same,MCC at 24 h,[2],90 µM
BrC12CCCC3CC(CCC31)C2 (stereo not given),MCC,[2],ND(Unstable)
C1=C2CCCC3CC1CCC23 (stereo not given),MCC,[2],ND(Unstable)
O=C(Cl)C12CCCC3CC(CCC31)C2 (stereo not given),MCC,[2],ND(Unstable)
O[C@H]1C2CCCC3C[C@H]1CC[C@H]32 (relative stereo),MIC,Newcastle disease virus [1],900 µM
same,MCC at 24 h,[2],1800 µM
O[C@@H]1C2CCCC3C[C@@H]1CC[C@@H]32 (relative stereo),MIC,Newcastle disease virus [1],750 µM
same,MCC at 24 h,[2],750 µM
NC12CC3CC(CC(C3)C1)C2 [AMANTADINE HYDROCHLORIDE],MIC,Newcastle disease virus [1],1300 µM
same,MCC at 24 h,[2],1300 µM
